System: HEK293 cells
Assay: Preliminary screening as mRNA vectors, EGFP mRNA transfection of HEK293 cells
Format: cell-based
Conditions: EGFP mRNA 50 ng per well, 96-well plates; percentage of GFP fluorescent cells relative to total number of cells (Hoechst)
How it was run: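 HEK293 cells in DMEM plus 10% FBS transfected in 96-well format with 50 ng EGFP mRNA per well; Lipofectamine2000 served as positive control. Read-out is the percentage of GFP-fluorescent cells among total cells, counted by Hoechst nuclear stain.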

Compound	Absolute mRNA transfection efficiency in HEK293 cells [%]
CCCCCCCCCCCCCCCCCCNc1nc(NCCN(CC)CC)nc(SCCCCCC)n1 [Compound D7S6N18]	4.6
CCCCCCCCCCCCCCCSc1nc(NCCCN2CCOCC2)nc(SCCCCCCC)n1 [Compound D8S7S15]	25.2
CCCCCCCCCCCCNc1nc(NCCN2CCOCC2)nc(SCCCCCCCC)n1 [Compound D2S8N12]	7.0
CCCCCCCCCCCCCCCCCCSc1nc(NCCCCCC)nc(NCC2CCN(C)CC2)n1 [Compound D10S18N6]	58.8
CCCCCCCCCCCCCNc1nc(NCCN2CCCC2)nc(SCCCCCCCCC)n1 [Compound D3S9N13]	58.2
CCCCCCCCCCCCCCCCSc1nc(NCCCCCCCC)nc(NCC2CCN(C)CC2)n1 [Compound D10S16N8]	70.4
CCCCCCCCNc1nc(NCCN2CCCC2)nc(SCCCCCCCC)n1 [Compound D3S8N8]	3.0
CCCCCCCCCCCCCCCCNc1nc(NCCN2CCN(C)CC2)nc(SCCCCCCCCCCCCCCCC)n1 [Compound D5S16N16]	0.1
CCCCCCCSc1nc(NCCCN2CCN(C)CC2)nc(SCCCCCCC)n1 [Compound D9S7S7]	18.3
CCCCCCCCCCCCCCCCCCSc1nc(NCCCCCCCCCCCCC)nc(NCC2CCN(C)CC2)n1 [Compound D10S18N13]	2.9
CCCCCCCCCCCCCCCNc1nc(NCCCN2CCOCC2)nc(SCCCCCCCCCCCC)n1 [Compound D8S12N15]	0.0
CCCCCCCCCCCCCCSc1nc(NCCCCCCCCCCC)nc(NCCN(C)C)n1 [Compound D1S14N11]	14.3
CCCCCCCNc1nc(NCCN2CCCC2)nc(SCCCCCC)n1 [Compound D3S6N7]	0.2
CCCCCCCNc1nc(NCCN2CCOCC2)nc(SCCCCCCC)n1 [Compound D2S7N7]	1.1
CCCCCCCCCCCCCCCCSc1nc(NCCCCCCC)nc(NCC2CCN(C)CC2)n1 [Compound D10S16N7]	29.6
CCCCCCCCCSc1nc(NCCN2CCCCC2)nc(SCCCCCC)n1 [Compound D4S6S9]	0.7
CCCCCCCCCCCCCCCCSc1nc(NCCCCCCCCCCCCC)nc(NCCN2CCOCC2)n1 [Compound D2S16N13]	0.0
CCCCCCCCCCCCCCCNc1nc(NCCN2CCCCC2)nc(SCCCCCCCCCCC)n1 [Compound D4S11N15]	17.0
CCCCCCCCCCCCCCCCSc1nc(NCCCCCCCCCCCC)nc(NCCN(CC)CC)n1 [Compound D7S16N12]	1.3
CCCCCCCCCCCCCCCNc1nc(NCC2CCN(C)CC2)nc(SCCCCCCC)n1 [Compound D10S7N15]	67.3
CCCCCCCCCCCCCCCSc1nc(NCCCCCCCCCCCCC)nc(NCCCN2CCOCC2)n1 [Compound D8S15N13]	0.2
CCCCCCCCCCCCCCCCSc1nc(NCCCCCCCCC)nc(NCCCN(C)C)n1 [Compound D6S16N9]	76.1

Compound	Absolute mRNA transfection efficiency in HEK293 cells [%]
CCCCCCNc1nc(NCCN2CCCCC2)nc(SCCCCCC)n1 [Compound D4S6N6]	0.3
CCCCCCCCCCCCCCCSc1nc(NCCCCCCCC)nc(NCCN2CCCC2)n1 [Compound D3S15N8]	17.0
CCCCCCCCCCCCCCSc1nc(NCCN2CCCC2)nc(N(CCCCCCCCCCCC)CCCCCCCCCCCC)n1 [D3S14^2N12]	0.2
CCCCCCCCCCCCCCCCCCSc1nc(NCCCCCCCCCCCC)nc(NCCN2CCCC2)n1 [Compound D3S18N12]	5.2
CCCCCCCCCSc1nc(NCCN(CC)CC)nc(SCCCCCCC)n1 [Compound D7S7S9]	13.5
CCCCCCCCCCCCCCCCCCSc1nc(NCCCCCCCCCCCC)nc(NCCCN2CCOCC2)n1 [Compound D8S18N12]	0.4
CCCCCCCCCCCCCCSc1nc(NCCCCCCCCCCC)nc(NCC2CCN(C)CC2)n1 [Compound D10S14N11]	21.4
CCCCCCCCCCCNc1nc(NCCN2CCOCC2)nc(SCCCCCCCC)n1 [Compound D2S8N11]	8.1
CCCCCCCCCCCCCCCCSc1nc(NCCN2CCCCC2)nc(SCCCCCCC)n1 [Compound D4S7S16]	8.8
CCCCCCCCCCCCCNc1nc(NCCN2CCN(C)CC2)nc(SCCCCCCCCCCCC)n1 [Compound D5S12N13]	0.4
CCCCCCSc1nc(NCCN(CC)CC)nc(SCCCCCC)n1 [Compound D7S6S6]	19.5
CCCCCCCCCCCCCCCCCCNc1nc(NCCN2CCN(C)CC2)nc(SCCCCCCCCCCCCCCCC)n1 [Compound D5S16N18]	0.2
CCCCCCCCCCCCCCCSc1nc(NCCCCCC)nc(NCCN(C)C)n1 [Compound D1S15N6]	37.7
CCCCCCCCCCCCCCCSc1nc(NCCCCCCCC)nc(NCCN2CCOCC2)n1 [Compound D2S15N8]	2.2
CCCCCCCCCCSc1nc(NCCCCCCC)nc(NCCN2CCN(C)CC2)n1 [Compound D5S10N7]	3.2
CCCCCCCCCCCCCCCCNc1nc(NCCN(CC)CC)nc(SCCCCCCCCCC)n1 [Compound D7S10N16]	19.3
CCCCCCCCCCCCCCCCCCNc1nc(NCCCN(C)C)nc(SCCCCCCCCCCCCCCCCCC)n1 [Compound D6S18N18]	0.0
CCCCCCCCCCCCN(CCCCCCCCCCCC)c1nc(NCCCN2CCOCC2)nc(SCCCCCCCC)n1 [D8S8^2N12]	0.1
CCCCCCCCCCCCCCCCNc1nc(NCCN2CCCCC2)nc(SCCCCCCCCCC)n1 [Compound D4S10N16]	14.7
CCCCCCCCCCCCCCCCSc1nc(NCCCCCCCCC)nc(NCCN2CCN(C)CC2)n1 [Compound D5S16N9]	68.1
CCCCCCCCCCCCN(CCCCCCCCCCCC)c1nc(NCCN2CCOCC2)nc(SCCCCCCCCCCC)n1 [D2S11^2N12]	0.3
CCCCCCCCCCCCCCCNc1nc(NCCN2CCCCC2)nc(SCCCCCCCCCCCCCCC)n1 [Compound D4S15N15]	3.5

Compound	Absolute mRNA transfection efficiency in HEK293 cells [%]
CCCCCCCCCCCCCCCNc1nc(NCCN2CCOCC2)nc(SCCCCCCCCCCCC)n1 [Compound D2S12N15]	0.0
CCCCCCCCCCCCCCCCCCNc1nc(NCCN2CCOCC2)nc(SCCCCCCCCC)n1 [Compound D2S9N18]	2.4
CCCCCCCCCCCCCCCCNc1nc(NCC2CCN(C)CC2)nc(SCCCCCCCCCCCCCCC)n1 [Compound D10S15N16]	6.1
CCCCCCCCNc1nc(NCCN2CCN(C)CC2)nc(SCCCCCCC)n1 [Compound D5S7N8]	4.3
CCCCCCCCCCCCCCCCCCNc1nc(NCCCN2CCN(C)CC2)nc(SCCCCCC)n1 [Compound D9S6N18]	24.0
CCCCCCCCCSc1nc(NCCN2CCCCC2)nc(SCCCCCCCC)n1 [Compound D4S8S9]	14.3
CCCCCCCCCCCCCCCCCCNc1nc(NCCCN(C)C)nc(SCCCCCCCCCCCC)n1 [Compound D6S12N18]	1.7
CCCCCCCCCCCCCCCSc1nc(NCCCCCCCCCCCCC)nc(NCCN2CCOCC2)n1 [Compound D2S15N13]	0.1
CCCCCCCNc1nc(NCCN(CC)CC)nc(SCCCCCCC)n1 [Compound D7S7N7]	3.9
CCCCCCCCCCSc1nc(NCCN2CCOCC2)nc(SCCCCCCC)n1 [Compound D2S7S10]	32.4
CCCCCCCCCCCCCCSc1nc(NCCCCCC)nc(NCCN2CCCC2)n1 [Compound D3S14N6]	66.7
CCCCCCCCCCCCNc1nc(NCCN2CCCC2)nc(SCCCCCCCCCCC)n1 [Compound D3S11N12]	40.5
CCCCCCCCCCCCCNc1nc(NCCN2CCCCC2)nc(SCCCCCCCCCCC)n1 [Compound D4S11N13]	15.4
CCCCCCCCCCCCCCCCSc1nc(NCCCN2CCOCC2)nc(SCCCCCC)n1 [Compound D8S6S16]	43.1
CCCCCCCCCCCCSc1nc(NCCCCCCCC)nc(NCC2CCN(C)CC2)n1 [Compound D10S12N8]	12.9
CCCCCCCCCCCCCCSc1nc(NCCN(CC)CC)nc(N(CCCCCCCCCCCC)CCCCCCCCCCCC)n1 [D7S14^2N12]	0.1
CCCCCCCCCCCCCCCCCCSc1nc(NCCCCCCCC)nc(NCCN2CCCC2)n1 [Compound D3S18N8]	93.3
CCCCCCCCCCCCCCCCCCSc1nc(NCCCCCCCCC)nc(NCCCN2CCOCC2)n1 [Compound D8S18N9]	0.2
CCCCCCCCCCCCCCCCNc1nc(NCC2CCN(C)CC2)nc(SCCCCCCCCCCCCCC)n1 [Compound D10S14N16]	3.0
CCCCCCCCCCCCCCCCNc1nc(NCCN2CCCCC2)nc(SCCCCCCCCC)n1 [Compound D4S9N16]	2.2
CCCCCCCCCCCCCCSc1nc(NCCCCCCCCCCCC)nc(NCC2CCN(C)CC2)n1 [Compound D10S14N12]	6.9
CCCCCCCCCCSc1nc(NCCN(CC)CC)nc(SCCCCCCCC)n1 [Compound D7S8S10]	7.6

Reference: patent US20230123334A1, “AMINO LIPID COMPOUND, PREPARATION METHOD THEREFOR, AND APPLICATION THEREOF” (SHENZHEN SHENXIN BIOTECHNOLOGY CO., LTD., priority 2020, published 2023)
